Measured values reported in PMC6844382, “Design, synthesis and evaluation of quinolinone derivatives containing dithiocarbamate moiety as multifunctional AChE inhibitors for the treatment of Alzheimer’s disease” (Journal of Enzyme Inhibition and Medicinal Chemistry, 2019).
Entries after “also recorded” stand apart in the source; their conditions may differ.

Legend:
hAChE [1] = biological target: T1, hAChE (Homo sapiens, UniProt P22303); test: Kinetic study of hAChE inhibition (Lineweaver-Burk); format: biochemical; design: Acetylcholinesterase (AChE, from electric eel and human erythrocytes); purchased Sigma-Aldrich (St. Louis, MO, USA)
Method: To determine the inhibition mechanism of present compounds, compound 4c was taken for kinetic analysis by Ellman’s method. Three concentrations of 4c were selected for the study, and hAChE was chosen as enzyme source. Following a similar method mentioned above in enzyme inhibition assay, Lineweaver–Burk reciprocal plots were constructed by plotting 1/velocity against 1/[substrate] at varying concentrations of the substrate acetylthiocholine (0.05 – 0.5 mM). All measurements were performed in triplicate and data analysis was performed with Graph Pad Prism 4.03 software (San Diego, CA, USA).

[2] = biological target: T2, AChE-induced Aβ1-42 aggregation (Electrophorus electricus, UniProt O42275); test: Inhibition of AChE-induced Aβ1-42 aggregation (ThT assay); format: biochemical; settings: inhibitor 100 μM; thioflavin-T fluorescence
T2 construct: eeAChE (from electric eel); purchased eeAChE: Sigma-Aldrich (St. Louis, MO, USA); Aβ1-42: Royobiotech Co., Ltd (Shanghai, China)
Method: 1, 1, 1, 3, 3, 3-hexafluoro-2-propanol (HFIP) and Thioflavin T (ThT) were obtained from TCI (Shanghai) Development. β-Amyloid1-42 (Aβ1-42), supplied as trifluoroacetate salt, and eeAChE were purchased from Royobiotech Co., Ltd (Shanghai, China) and Sigma-Aldrich (St. Louis, MO, USA), respectively. For co-incubation experiments, aliquots of Aβ1-42 peptide and AChE in presence or absence of the test compounds were incubated for 48 h at 37 °C. […] The percent inhibition of the AChE-induced Aβ aggregation due to the presence of inhibitor was calculated by the following formula: 100 – (IFi/IFo*100), where IFi and IFo are the fluorescence intensities obtained for Aβ1-42 aggregation in the presence and in the absence of inhibitor, respectively. Each assay was run in triplicate and each reaction was repeated at least three independent times.

[3] = system: human neuroblastoma SH-SY5Y cells; test: Cytotoxicity on SH-SY5Y cells (MTT assay); format: cell-based; settings: 12.5–100 µM, 24 h
Method: The cytotoxicity of test compound on the human neuroblastoma SH-SY5Y cells was evaluated by MTT assay. The SH-SY5Y cells were grown in a 1:1 mixture of Eagle's minimum essential medium (EMEM) and ham's F-12 medium supplemented with 10% foetal bovine serum (FBS), 100 U/mL penicillin and […] streptomycin in 5% CO2 at 37 °C. For assay, cells were seeded into 96-well plates at a density of 10000 cells/well and treated with compound 4c for 24 h. After this treatment, 20 μL of MTT at 37 °C was added. Four hours later, the medium was removed, and 200 μL of DMSO was added to dissolve the formazan crystal formed. The absorbance was measured using a microculture plate reader with a test wavelength of 570 nm and a reference wavelength of 630 nm. Results are expressed as the mean ± SD of three independent experiments.

[4] = biological target: T3, self-induced Aβ1-42 aggregation (Homo sapiens, UniProt P05067); test: Inhibition of self-induced Aβ1-42 aggregation (ThT assay); format: biochemical; settings: read-out: Inhibition of Aβ1–42 aggregation (%) Self-induced
T3 construct: Aβ1-42 was obtained from Royobiotech Co., Ltd (Shanghai, China); purchased Royobiotech Co., Ltd (Shanghai, China)
Method: The inhibitory activities of compounds 4c-f and 9a-b on self-induced Aβ1-42 aggregation were also measured by the ThT assay. HFIP and ThT were purchased from TCI (Shanghai) Development. Aβ1-42 was obtained from Royobiotech Co., Ltd (Shanghai, China). The monomeric Aβ1-42 samples were prepared by HFIP and diluted with a 50 mM phosphate buffer (pH 7.4) to give a 25 μM solution. The test compound was dissolved in DMSO (250 μM) for storage and needed not to be diluted prior to use. […]. Then, 200 μL of 5 μM ThT in 50 mM glycine-NaOH buffer (pH 8.0) was added, and the percent inhibition was calculated by the method same as that of AChE-induced Aβ1–42 experiment.

in vitro = settings: PAMPA
Method: (§1) Afterwards, the acceptor filter plate was carefully placed on the donor plate to make the coated membrane touch both donor solution and acceptor buffer. […] Pe was calculated by the following expression: Pe = {−VdVa/[(Vd + Va)At]}ln (1-drugacceptor/drugequilibrium), where Vd is the volume of donor well, Va is volume in acceptor well, A is the filter area, t is the permeation time, drugacceptor is the absorbance obtained in the acceptor well and drugequilibrium is the theoretical equilibrium absorbance. Each compound was analysed at five wavelengths in four wells at least three independent runs, and the results were expressed as mean ± SD.

[5] = from PAMPA-BBB Pe
Method: as §1

eeAChE = biological target: T4, eeAChE (Electrophorus electricus, UniProt O42275); test: In vitro inhibition of eeAChE (Ellman method); format: biochemical, electric eel
T4 construct: eeAChE (from electric eel); purchased Sigma-Aldrich (St. Louis, MO, USA); host or cells: electric eel
Method: (§2) The in vitro inhibitory activities of test compounds against AChE and BuChE were determined by the spectrophotometric method of Ellman[25]. […] For each assay, 160 μL of 1.5 mM DTNB, 50 μL of AChE (0.22 U/mL for eeAChE; 0.05 U/mL for hAChE) or eqBuChE (0.12 U/mL) were incubated with 10 μL of different concentrations of test compounds at 37 °C for 6 min.

Kunming mice = test: Acute oral toxicity study; format: in vivo; settings: oral, 625, 1250 and 2500 mg/kg, observed 14 days
Method: A total of 40 Kunming mice (half male and half female) were used to determine the acute toxicity of compound 4c[31]^,[32]. All mice weighting 18–25 g were obtained from Hunan SJA Laboratory Animal Co., Ltd. and randomly divided into corresponding groups. They were maintained under a 12 h light/dark cycle and allowed free access to tap water and standard laboratory chow. The room was maintained at temperature of 23 ± 2 °C with a relative humidity of 55 ± 5%. Prior to dosing, all animals were acclimated to this environment for 5 days. Compound 4c was suspended in 0.5% carboxymethyl cellulose sodium (CMC-Na) salt solution and given via oral administration to the divided experimental groups (0, 625, 1250 and 2500 mg/kg, n = 10 per group). After administration, animals were observed continuously for the first 4 h for any abnormal behavioural changes or deaths, then intermittently for the next 24 h, and occasionally thereafter for 14 days for the onset of any delayed effects. On the 14th day, all mice were sacrificed after being anaesthetized by ether, and the possible toxic damage to liver, heart and kidneys was examined macroscopically.

eqBuChE = biological target: T5, eqBuChE (Equus caballus, UniProt P81908); test: In vitro inhibition of eqBuChE (Ellman method); format: biochemical, equine; settings: read-out: eqBuChE Inhibition (%)
T5 construct: eqBuChE (from equine serum); purchased Sigma-Aldrich (St. Louis, MO, USA); host or cells: equine serum
Method: as §2

hAChE [6] = biological target: T1, hAChE; test: In vitro inhibition of hAChE (Ellman method); format: biochemical; design: Acetylcholinesterase (AChE, from electric eel and human erythrocytes); purchased Sigma-Aldrich (St. Louis, MO, USA); host or cells: human erythrocytes
Method: as §2

T1 sequence (P22303 32-617 isoform P22303-2 limits assumed): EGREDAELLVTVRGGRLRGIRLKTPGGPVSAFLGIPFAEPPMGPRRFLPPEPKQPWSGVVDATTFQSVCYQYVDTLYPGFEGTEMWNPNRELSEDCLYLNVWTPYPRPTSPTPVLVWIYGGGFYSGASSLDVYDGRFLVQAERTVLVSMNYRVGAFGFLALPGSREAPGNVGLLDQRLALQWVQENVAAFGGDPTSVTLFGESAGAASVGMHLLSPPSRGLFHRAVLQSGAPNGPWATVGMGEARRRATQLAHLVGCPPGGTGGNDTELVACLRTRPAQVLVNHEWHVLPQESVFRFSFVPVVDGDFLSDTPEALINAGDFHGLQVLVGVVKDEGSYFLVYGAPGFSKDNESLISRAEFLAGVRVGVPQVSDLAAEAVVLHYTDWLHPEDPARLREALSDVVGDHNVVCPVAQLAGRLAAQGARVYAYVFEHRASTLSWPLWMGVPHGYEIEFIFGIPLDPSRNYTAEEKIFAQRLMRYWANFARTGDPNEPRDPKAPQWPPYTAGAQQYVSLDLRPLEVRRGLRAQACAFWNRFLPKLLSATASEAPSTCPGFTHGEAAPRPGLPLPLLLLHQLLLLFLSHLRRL
T4 sequence (O42275 24-633): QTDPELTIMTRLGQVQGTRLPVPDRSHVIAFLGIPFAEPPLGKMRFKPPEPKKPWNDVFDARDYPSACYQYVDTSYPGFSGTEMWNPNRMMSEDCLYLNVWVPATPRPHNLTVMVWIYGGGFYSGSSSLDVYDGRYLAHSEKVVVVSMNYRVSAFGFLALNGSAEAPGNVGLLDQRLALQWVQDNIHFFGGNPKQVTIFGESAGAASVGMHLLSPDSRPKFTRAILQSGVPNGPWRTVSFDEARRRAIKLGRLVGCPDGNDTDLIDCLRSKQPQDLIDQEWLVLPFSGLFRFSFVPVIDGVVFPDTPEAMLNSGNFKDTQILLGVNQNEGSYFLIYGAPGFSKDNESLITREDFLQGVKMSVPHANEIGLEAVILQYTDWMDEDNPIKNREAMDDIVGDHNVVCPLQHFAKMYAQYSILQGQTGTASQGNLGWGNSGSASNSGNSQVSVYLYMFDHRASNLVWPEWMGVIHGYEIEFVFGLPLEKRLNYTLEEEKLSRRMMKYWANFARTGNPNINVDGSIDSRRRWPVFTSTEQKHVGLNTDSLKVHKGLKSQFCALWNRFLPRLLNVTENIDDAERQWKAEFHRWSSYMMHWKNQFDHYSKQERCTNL
T5 sequence (P81908 whole entry): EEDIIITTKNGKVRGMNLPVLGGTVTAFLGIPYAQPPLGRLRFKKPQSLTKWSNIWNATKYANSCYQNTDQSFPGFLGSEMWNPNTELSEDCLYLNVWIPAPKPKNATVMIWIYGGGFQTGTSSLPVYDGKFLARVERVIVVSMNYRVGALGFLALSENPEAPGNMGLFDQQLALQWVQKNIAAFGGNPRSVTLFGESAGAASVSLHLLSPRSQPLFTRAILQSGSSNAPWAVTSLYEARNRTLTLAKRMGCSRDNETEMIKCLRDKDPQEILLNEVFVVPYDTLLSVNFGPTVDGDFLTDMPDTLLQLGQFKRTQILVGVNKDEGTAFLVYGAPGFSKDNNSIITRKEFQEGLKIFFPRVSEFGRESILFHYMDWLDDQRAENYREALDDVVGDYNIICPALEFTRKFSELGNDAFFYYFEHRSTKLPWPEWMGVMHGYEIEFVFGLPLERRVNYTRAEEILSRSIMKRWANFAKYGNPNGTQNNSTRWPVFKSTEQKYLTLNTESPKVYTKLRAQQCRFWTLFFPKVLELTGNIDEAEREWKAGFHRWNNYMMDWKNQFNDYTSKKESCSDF
T3 sequence (P05067 672-713): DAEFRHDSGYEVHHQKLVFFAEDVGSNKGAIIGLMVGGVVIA
T2 sequence (O42275 24-633): as the sequence (O42275 24-633) above

SMILES: O=c1ccc2ccc(OCCCCSC(=S)N3CCCCC3)cc2[nH]1 [4c, 4-((2-oxo-1,2-dihydroquinolin-7-yl)oxy)butyl piperidine-1-carbodithioate]
- type of inhibition (hAChE [1]; Lineweaver-Burk plots, hAChE, 0.1, 0.2, 0.4 μM inhibitor): mixed-type inhibitor; also recorded: mixed-type inhibition
- Ki (hAChE [1]; replots of slope versus concentration of 4c, hAChE, read-out: competitive inhibition constant Ki): 0.225 µM
- inhibition at 100 µM [2]: 29 ± 2.06%
- effect on cell viability (cytotoxicity) [3]: did not show a significant effect on cell viability; also recorded: negligible toxicity; also recorded: no toxicity
- inhibition at 25 µM [4]: 30.7 ± 6.54%
- Papp at 18 h, 25 μg/mL (in vitro): 8.91 ± 2.03 ×10⁻⁶ cm/s
- Prediction of penetration into CNS [5]: CNS+ (CNS + is predicted as high BBB permeation with Pe (×10^6 cm/s) > 3.33)
- IC50 (eeAChE): 0.22 ± 0.03 µM
- times more potent than galanthamine on AChE (eeAChE; ratio of eeAChE IC50 values): 7.5 times
- acute toxicity (Kunming mice): no evident toxicity signs; also recorded: no significant acute toxicity; also recorded: well tolerated
- inhibition at 10 µM (eqBuChE): 45.4 ± 8.34%
- IC50 (hAChE [6]): 0.16 ± 0.02 µM
- fold more potent on hAChE than tacrine (hAChE [6]; ratio of hAChE IC50 values): ~3 fold
